The structures appear in SMILES notation. Like-named read-outs stand apart in the source and are kept apart here.

For assay [1], the system named is MCP-1 production in primary murine microglial cells. As to the kind of experiment: MCP-1 ELISA, primary mouse microglia after CSF-1 stimulation. Type of assay: cell-based. The following applies: primary murine microglia, 100 ng/mL CSF-1 24 hours. As to the method: Primary mouse microglia were suspended at a concentration of 5×10^5 cells/mL and 100 μL of this cell suspension was added to the inner 60 wells of three 96-well plates. Microglia cells were allowed to rest overnight at 37° C., 5% CO2. […] Cells were then stimulated with 100 ng/mL recombinant mouse CSF-1 for 24 hours. After stimulation, the culture supernatant was removed from each well and aliquoted into two different 96-well plates for subsequent ELISA assays. Plates were fixed with 4% PFA for future immunocytochemistry analysis.
On the technique in general: In an ELISA, binding on a coated surface is turned into a signal by an enzyme label.

The next assay deals with primary murine microglia. The experiment in a line: Immunostaining of primary microglia (Iba1+ area, DAPI+ nuclei) after CSF-1 stimulation. Format: cell-based, mouse. The following applies: for IC50: primary murine microglia, CSF-1 stimulation. As to the method:
Primary mouse microglia were suspended at a concentration of 5×10^5 cells/mL and 100 μL of this cell suspension was added to the inner 60 wells of three 96-well plates. Microglia cells were allowed to rest overnight at 37° C., 5% CO2. […] Cells were then stimulated with 100 ng/mL recombinant mouse CSF-1 for 24 hours. After stimulation, the culture supernatant was removed from each well and aliquoted into two different 96-well plates for subsequent ELISA assays. Plates were fixed with 4% PFA for future immunocytochemistry analysis. Following the stimulation, cells were fixed with 4% PFA for 20 minutes at room temperature. Cells were then rinsed in PBS, washed 3×5 minutes in 0.2% PBT (0.2% Triton X-100 in PBS) and blocked with 10% donkey serum/0.2% PBT for 1 hour at room temperature. […] After staining, plates were imaged on the IN Cell Analyzer 2200 with 9 fields of view acquired per well. […] A one-way ANOVA was used to determine the statistical significance of differences between samples. […] Following a microglial stimulation, immunocytochemistry was completed with Iba1, Ki67, and DAPI to determine microglial morphology, proliferative state, and number. InCell imaging microsope and analysis software was used to quantify Iba1^+ area, and the number of DAPI^+ nuclei within the cultures.

Usually IC50 stands for the concentration needed to halve the response being measured. Take `FC(F)(F)c1ccc(CNc2ccc(Cc3c[nH]c4ncc(Cl)cc34)cn2)cn1` [PLX3397, pexidartinib]: the IC50 in assay [1] (read-out: IC50, MCP-1 production) was 17.4 nM; in the assay on primary murine microglia (read-out: IC50 for DAPI (DAPI+ cell number)), 68.2 nM; in the assay with primary murine microglia (read-out: IC50 for Iba1 (Iba1+ area)) it was 50.4 nM. For the same molecule, the MCP-1 production result in assay [1] (3.125-400 nM) is reported as “significantly reduced MCP-1 production in a concentration dependent manner”. Also, the “Iba1+ area” value in the assay on primary murine microglia (CSF-1 stimulation increases Iba1+ area) is reported as “significantly abrogated this effect in a concentration dependent manner”. For the same molecule, the “number of cells (DAPI+ cells)” value with primary murine microglia (CSF-1 stimulation increases cell number) is listed as “reduce this number in a concentration dependent manner”.
